# How the values were obtained:
# [1] = target: T1, Kallikrein-5 (Homo sapiens, UniProt Q9Y337); test: Competitive inhibition of human kallikrein-5
# T1 sequence (Q9Y337 whole entry): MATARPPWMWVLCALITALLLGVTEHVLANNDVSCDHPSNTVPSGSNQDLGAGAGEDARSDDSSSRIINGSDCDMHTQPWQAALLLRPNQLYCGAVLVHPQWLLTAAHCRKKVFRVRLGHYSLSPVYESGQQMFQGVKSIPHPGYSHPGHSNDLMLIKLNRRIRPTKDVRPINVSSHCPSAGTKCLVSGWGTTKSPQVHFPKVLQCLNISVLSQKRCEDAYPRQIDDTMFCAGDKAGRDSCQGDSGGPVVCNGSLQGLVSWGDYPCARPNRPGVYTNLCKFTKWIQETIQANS
# [2] = test system: Rattus norvegicus; test: Anti-ulcer activity in Sprague-Dawley rat stomach assessed as protection against stress-induced gastric ulcer at 25 mg/kg, po pretreated for 30 mins followed by stress measured after 6 hrs relative to control; assay type: functional
# [3] = test system: HepG2; test: Cytotoxicity against human HepG2 cells; assay type: functional, cell-based
# [4] = test system: MCF7; test: Cytotoxicity against human MCF7 cells; assay type: functional, cell-based
# [5] = test system: Echinochloa frumentacea; test: Growth inhibition of Barnyard millet seeds at 50 uM after 5 days relative to control; assay type: functional; details: 120 h, read-out: GI
# [6] = test system: KB; test: Cytotoxicity against human KB cells assessed as reduction in cell viability by resazurin microplate assay; assay type: functional, cell-based
# [7] = test system: NCI-H187; test: Cytotoxicity against human NCI-H187 cells assessed as reduction in cell viability by resazurin microplate assay; assay type: functional, cell-based
# [8] = test system: KB; test: Cytotoxicity against human KB cells; assay type: functional, cell-based
# [9] = test system: NCI-H187; test: Cytotoxicity against human NCI-H187 cells; assay type: functional, cell-based
# [10] = Therapeutic ratio of LC50 to EC50 for Balanus amphitritea; assay type: ADME; details: amphibalanus amphitrite; read-out: TI
# [11] = test system: Tobacco mosaic virus; test: Antiviral activity against TMV assessed as inhibition of viral infection at 20 uM by half-leaf method relative to control; assay type: functional
# [12] = test system: MCF7; test: Cytotoxicity against human MCF7 cells assessed as reduction in cell viability after 3 days by MTT assay; assay type: functional, cell-based; details: MCF7, 72 h
# [13] = test system: A549; test: Cytotoxicity against human A549 cells assessed as reduction in cell viability after 3 days by MTT assay; assay type: functional, cell-based; details: A549, 72 h
# [14] = test system: Tobacco mosaic virus; test: Antiviral activity against TMV infected in Nicotiana glutinosa leaves assessed as inhibition of lesions at 20 uM pretreated for 30 mins followed by viral infection measured after 3 to 4 days by half-leaf method relative to control; assay type: functional
# [15] = Cytotoxicity against human NB4 cells assessed as reduction in cell viability after 48 hrs by MTT assay; assay type: functional, cell-based; details: NB-4, 48 h
# [16] = test system: A549; test: Cytotoxicity against human A549 cells assessed as reduction in cell viability after 48 hrs by MTT assay; assay type: functional, cell-based; details: A549, 48 h
# [17] = test system: SH-SY5Y; test: Cytotoxicity against human SH-SY5Y cells assessed as reduction in cell viability after 48 hrs by MTT assay; assay type: functional, cell-based
# [18] = Cytotoxicity against human PC3 cells assessed as reduction in cell viability after 48 hrs by MTT assay; assay type: functional, cell-based; details: PC-3, 48 h
# [19] = test system: MCF7; test: Cytotoxicity against human MCF7 cells assessed as reduction in cell viability after 48 hrs by MTT assay; assay type: functional, cell-based; details: MCF7, 48 h
# [20] = target: Kallikrein-7 (Homo sapiens, UniProt P49862); test: Competitive inhibition of human kallikrein-7
# Kallikrein-7, sequence (P49862 whole entry): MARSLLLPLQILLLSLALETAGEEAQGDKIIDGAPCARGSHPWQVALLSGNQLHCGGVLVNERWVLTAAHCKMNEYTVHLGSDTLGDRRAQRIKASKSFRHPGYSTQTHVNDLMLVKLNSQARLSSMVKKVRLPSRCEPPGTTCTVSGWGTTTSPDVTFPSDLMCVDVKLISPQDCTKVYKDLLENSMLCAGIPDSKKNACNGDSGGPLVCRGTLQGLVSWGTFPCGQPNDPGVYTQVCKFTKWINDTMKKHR
# [21] = target: T2, Aromatase (Homo sapiens, UniProt P11511); test: Inhibition of aromatase (unknown origin)
# T2 sequence (P11511 whole entry): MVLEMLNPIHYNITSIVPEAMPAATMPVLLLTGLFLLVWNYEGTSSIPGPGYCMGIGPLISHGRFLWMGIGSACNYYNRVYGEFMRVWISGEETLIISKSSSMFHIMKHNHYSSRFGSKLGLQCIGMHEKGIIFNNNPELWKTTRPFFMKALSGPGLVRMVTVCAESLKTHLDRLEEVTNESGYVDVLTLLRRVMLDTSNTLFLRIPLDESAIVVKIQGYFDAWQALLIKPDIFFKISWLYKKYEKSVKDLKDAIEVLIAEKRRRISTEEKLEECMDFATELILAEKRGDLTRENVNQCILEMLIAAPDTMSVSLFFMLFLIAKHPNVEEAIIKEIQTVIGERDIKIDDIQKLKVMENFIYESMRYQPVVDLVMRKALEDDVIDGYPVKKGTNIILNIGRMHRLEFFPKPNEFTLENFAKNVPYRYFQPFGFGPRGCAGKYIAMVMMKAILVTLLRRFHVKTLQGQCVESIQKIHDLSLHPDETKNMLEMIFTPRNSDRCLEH
# [22] = Antioxidant activity assessed as radical scavenging activity; assay type: physicochemical
# [23] = test system: Staphylococcus aureus; test: Antibacterial activity against Staphylococcus aureus; assay type: functional
# [24] = test system: P388; test: Cytotoxicity against mouse P388 cells; assay type: functional, cell-based
smiles,measurement,setting,value
COc1cc2c(OC)c3cc(C)oc(=O)c3c(O)c2c(O)c1-c1c(OC)cc2c(OC)c3cc(C)oc(=O)c3c(O)c2c1O,Ki,[1],22.9 µM
CC(C)C[C@H](NC(=O)[C@@H](O)[C@@H](O)[C@@H](N)CC(=O)O)[C@@H]1Cc2cccc(O)c2C(=O)O1,Activity,[2],100%
Cc1c(O)cc2c(c1O)C(=O)O[C@H](CO)C2,IC50,[3],6.41 µM
same,IC50,[4],6.67 µM
CC(C)C[C@H](NC(=O)C[C@@H](O)[C@H]1O[C@](C)(O)[C@H](C)NC1CC(N)=O)[C@@H]1Cc2cccc(O)c2C(=O)O1 (some centres undefined),inhibition of growth at 50 µM,[5],7%
Cc1c(O)cc2c(c1O)C(=O)O[C@H](C)C2,IC50,[3],6.41 µM
same,IC50,[4],6.67 µM
COc1c(O)c(-c2c(O)c(OC)c(O)c3c(=O)oc(C)cc23)c2cc(C)oc(=O)c2c1O,IC50,[6],24.4 µg/mL
same,IC50,[7],8.31 µg/mL
same,IC50,[8],24.4 µg/mL
same,IC50,[9],8.31 µg/mL
C/C=C/CC[C@H]1OC(=O)c2c(O)c(CC=C(C)C)cc(O)c2[C@H]1OC,selectivity ratio,[10],> 15
CC(C)C[C@H](NC(=O)[C@@H](O)[C@H]1OC(=O)C[C@@H]1N)[C@@H]1Cc2cccc(O)c2C(=O)O1,Activity,[2],83%
CCCCC[C@H]1OC(=O)c2c(O)c(CC=C(C)C)cc(O)c2[C@H]1OC,selectivity ratio,[10],> 15
COc1cc(OC)c2c(c1CC=C(C)C)C[C@@H](C)OC2=O,inhibition at 20 µM,[11],28.6%
same,IC50,[12],4 µM
same,IC50,[13],3.8 µM
C[C@@H]1Cc2cc(O)c(C=O)c(O)c2C(=O)O1,IC50,[3],6.41 µM
same,IC50,[4],6.67 µM
COc1c(O)cc2c(c1CC=C(C)C)C[C@@H](C)OC2=O,inhibition at 20 µM,[11],28.6%
same,IC50,[12],4 µM
same,IC50,[13],3.8 µM
CC(=O)Cc1cc2c(CCCO)cc(O)cc2c(=O)o1,inhibition at 20 µM,[14],28.4%
same,IC50,[15],2.8 µM
same,IC50,[16],2.8 µM
same,IC50,[17],2.8 µM
same,IC50,[18],2.8 µM
same,IC50,[19],2.8 µM
CC(C)C[C@H](NC(=O)[C@@H](O)[C@H]1O[C@](C)(O)[C@@]2(C)NC(=O)C[C@@H]1N2)[C@@H]1Cc2cccc(O)c2C(=O)O1,inhibition of growth at 50 µM,[5],82%
CC[C@@H]1Cc2cc(O)cc(O)c2C(=O)O1,IC50,[3],6.41 µM
same,IC50,[4],6.67 µM
COC1=C(c2c(OC)cc3c(c2O)C(=O)C2=C(C[C@H](C)OC2=O)C3=O)C(=O)c2c(O)c3c(c(O)c2C1=O)C[C@H](C)OC3=O,Ki,[1],22.9 µM
same,Ki,[20],12.2 µM
C[C@H](O)C/C=C/CCCCC1Cc2cc(O)cc(O)c2C(=O)O1 (some centres undefined),IC50,[21],12.3 µM
same,IC50,[22],21.7 µM
CC[C@H](N)[C@H](O)[C@H](O)CC(=O)N[C@@H](CC(C)C)[C@@H]1Cc2cccc(O)c2C(=O)O1,MIC,[23],12 µM
same,IC50,[24],15 µM
CC(C)C[C@H](NC(=O)[C@@H](O)[C@@H](O)[C@@H](N)CC(N)=O)[C@@H]1Cc2cccc(O)c2C(=O)O1,Activity,[2],72%
CC1(C)CCc2c(cc(O)c3c2CC(CO)OC3=O)O1 (centres undefined),inhibition at 20 µM,[11],33.8%
COc1ccc(CCCO)c2cc(CC(C)=O)oc(=O)c12,inhibition at 20 µM,[14],30.6%
same,IC50,[15],2.8 µM
same,IC50,[16],2.8 µM
same,IC50,[17],2.8 µM
same,IC50,[18],2.8 µM
same,IC50,[19],2.8 µM
CCCC1Cc2cc(O)c(Br)c(O)c2C(=O)O1 (centres undefined),IC50,[24],0.19 µg/mL
COc1cc2c(c3c1OC(C)(C)CC3=O)C[C@@H](C)OC2=O,inhibition at 20 µM,[11],28.6%
same,IC50,[12],4 µM
same,IC50,[13],3.8 µM

# From ChEMBL document CHEMBL3797191, “Isocoumarins, miraculous natural products blessed with diverse pharmacological activities” (Eur J Med Chem, 2016)
